# Results from patent US20200323838A1, “LENALIDOMIDE IMMEDIATE RELEASE FORMULATIONS” (Synbias Pharma AG, priority 2017, published 2020).
# Read-outs that look alike come from different tables or passages of the source.
# Legend:
# [1] = high solubility, low permeability; cited from earlier work
# [2] = 0.1 HCl buffer (highest solubility); cited from earlier work
# [3] = cited from earlier work
# [4] = Dissolution of hard gelatin capsules (Xtend Sotax dissolutor, HPLC detection); format: physicochemical
# From the text: (§1) Micronized lenalidomide form A (d(0.5)=10 μm) was mixed with microcrystalline cellulose in a ratio 1:10, filled manually in Size 2 HGC and analyzed for dissolution. Dissolution experiments were run in Xtend Sotax dissolutor, in phosphate buffer pH 6.5 and 0.01 HCl pH 1.8. Sampling time intervals were 10, 15, 20, min. In house developed isocratic HPLC analytical method was used for detection of lenalidomide in dissolution media.
# as §1, with “Non-micronized” for “Micronized”, “(d(0.5)=30” for “(d(0.5)=10”
# 20 mg of non-micronized lenalidomide form A were mixed with 20 mg microcrystalline cellulose, 60 mg lactose monohydrate and, filled manually in size 2 HGC and analyzed for dissolution as in Example 1.
# Formulation prepared according to Example 6 was used for comparative dissolution with Revlimid HGCs in 50 mM phosphate buffer pH 6.8. The results in Table 8 show there was no difference between dissolution profile of Revlimid and tested HGC. […]
# [5] = HCl buffer pH 1.8, containing 1% sodium lauryl sulfate; cited from earlier work
lenalidomide API dissolved in 10 min [4] [%],SMILES,BCS class [1],solubility [2] [mg/mL],"time to reach maximum serum concentration (Tmax) ([3]; healthy volunteers, oral) [min]","time to reach maximum serum concentration (Tmax) ([3]; patients with acute myeloid leukemia, oral administration, 25 mg) [min]",solubility [5] [mg/mL]
≥ 80,"Nc1cccc2c1CN(C1CCC(=O)NC1=O)C2=O (stereo not drawn) [Lenalidomide, 3-(4-amino-1,3-dihydro-1-oxo-2H-isoindol-2-yl)-2,6-piperidine dione]",class III,18.0,46.2 to 60,71.4,–
–,Nc1cccc2c1CN(C1CCC(=O)NC1=O)C2=O (stereo not drawn) [Polymorph B],–,–,–,–,5.8
